Test results from US20150105252A1, “SUBSTITUTED PYRAZOLES AS HERBICIDES” (E I DU PONT DE NEMOURS AND COMPANY, priority 2013, published 2015).

Experiments:
chickweed = test: Test C postemergence; type: in vivo, Stellaria media; settings: for Plant response rating (scale of 0 to 100 where 0 is no effect and 100 is complete control), Chickweed: Postemergence, 31 g ai/ha, visually evaluated after 13 to 15 days; for Chickweed plant response rating / Plant response rating, Chickweed: postemergence; for Chickweed plant response rating: 62 g ai/ha, scale 0 to 100
In short: (§1)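 Herbicidal effect is expressed as percent visual control (0–100) judged against untreated plants 13 to 15 days after treatment in the greenhouse. Preemergence pots contained seeds in a soil–sand blend; postemergence plants, 2–18 cm tall, grew in peat-based planting medium.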

velvetleaf [1] = test: Test C postemergence; type: in vivo, Abutilon theophrasti; settings: postemergence; for Plant response rating, Velvetleaf: 250 g ai/ha, scale 0 to 100 (0 no effect, 100 complete control); for Velvetleaf plant response rating: scale 0 to 100
In short: as §1

lambsquarters = test: Test C postemergence; type: in vivo, Chenopodium album; settings: for Plant response rating (scale of 0 to 100 where 0 is no effect and 100 is complete control), Lambsquarters: Postemergence, 31 g ai/ha, visually evaluated after 13 to 15 days; for Lambsquarters plant response rating / Plant response rating, Lambsquarters: postemergence; for Lambsquarters plant response rating: 62 g ai/ha, scale 0 to 100
In short: as §1

pigweed = test: Test C postemergence; type: in vivo, Amaranthus retroflexus; settings: postemergence; for Pigweed plant response rating: 62 g ai/ha, scale 0 to 100
In short: as §1

velvetleaf [2] = test: Test A postemergence; type: in vivo, Abutilon theophrasti; settings: Postemergence
In short: (§2)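 Pre- and postemergence greenhouse test; loam+sand; cpd in non-phytotox. solvent/surfactant; post at 1–2 leaf, 2–10 cm; visual score ~10 d, 0 = none, 100 = complete control.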

barnyardgrass [3] = test: Test C postemergence; type: in vivo, Echinochloa crus-galli; settings: for Plant response rating (scale of 0 to 100 where 0 is no effect and 100 is complete control), Barnyardgrass: Postemergence, 31 g ai/ha, visually evaluated after 13 to 15 days; for Barnyardgrass plant response rating / Plant response rating, Barnyardgrass: postemergence; for Barnyardgrass plant response rating: 62 g ai/ha, scale 0 to 100
In short: as §1

corn [4] = test: Test A preemergence; type: in vivo, Zea mays; settings: preemergence; for Corn plant response rating (0 to 100 scale): 125 g ai/ha, visual injury approx. 10 days after treatment; for Corn plant response rating: 500 g ai/ha, visual injury after approx. 10 days, 0 to 100 scale (0 no effect, 100 complete control)
In short: as §2

barnyardgrass [5] = test: Test C preemergence; type: in vivo, Echinochloa crus-galli; settings: preemergence; for Plant response rating, Barnyardgrass: 125 g ai/ha, scale 0 to 100, 0 = no effect, 100 = complete control
In short: as §1

oat, wild = test: Test C postemergence; type: in vivo, Avena fatua; settings: for Plant response rating (scale of 0 to 100 where 0 is no effect and 100 is complete control), Oat, Wild: Postemergence, 31 g ai/ha, visually evaluated after 13 to 15 days; for Oat, Wild plant response rating / Plant response rating, Oat, Wild: postemergence; for Oat, Wild plant response rating: 62 g ai/ha, scale 0 to 100
In short: as §1

morningglory [6] = test: Test A preemergence; type: in vivo, Ipomoea spp.; settings: preemergence; for Morningglory plant response rating (0 to 100 scale): 125 g ai/ha, visual injury approx. 10 days after treatment; for Morningglory plant response rating: 500 g ai/ha, visual injury after approx. 10 days, 0 to 100 scale (0 no effect, 100 complete control)
In short: as §2

oilseed rape = test: Test C postemergence; type: in vivo, Brassica napus; settings: postemergence; for Oilseed Rape plant response rating: 62 g ai/ha, scale 0 to 100
In short: as §1

foxtail, giant = test: Test A preemergence; type: in vivo, Setaria faberii; settings: preemergence; for Foxtail, Giant plant response rating (0 to 100 scale): 125 g ai/ha, visual injury approx. 10 days after treatment; for Foxtail, Giant plant response rating: 500 g ai/ha, visual injury after approx. 10 days, 0 to 100 scale (0 no effect, 100 complete control)
In short: as §2

morningglory [7] = test: Test C postemergence; type: in vivo, Ipomoea coccinea; settings: for Plant response rating (scale of 0 to 100 where 0 is no effect and 100 is complete control), Morningglory: Postemergence, 31 g ai/ha, visually evaluated after 13 to 15 days; for Morningglory plant response rating / Plant response rating, Morningglory: postemergence; for Morningglory plant response rating: 62 g ai/ha, scale 0 to 100
In short: as §1

barnyardgrass [8] = test: Test A postemergence; type: in vivo, Echinochloa crus-galli
In short: as §2

galium = test: Test C preemergence; type: in vivo, Galium aparine; settings: preemergence; for Plant response rating, Galium: 125 g ai/ha, scale 0 to 100, 0 = no effect, 100 = complete control
In short: as §1

corn [9] = test: Test A postemergence; type: in vivo, Zea mays
In short: as §2

[10] = 250 g ai/ha, scale 0 to 100 (0 no effect, 100 complete control)
[11] = 125 g ai/ha, scale 0 to 100, 0 no effect, 100 complete control
[12] = 125 g ai/ha, 0 to 100 scale, 0 no effect, 100 complete control
[13] = 500 g ai/ha, 0 to 100 scale (0 no effect, 100 complete control)
[14] = 31 g ai/ha, visual rating, scale 0 to 100 (0 no effect, 100 complete control), 13 to 15 days
[15] = 62 g ai/ha, scale 0 to 100 (0 no effect, 100 complete control), 13 to 15 days
[16] = 250 g ai/ha, scale 0 to 100, 0 is no effect, 100 is complete control
[17] = Postemergence, 500 g ai/ha, 0 to 100 scale (0 no effect, 100 complete control)
[18] = postemergence, 125 g ai/ha, about 10 days, visual rating on 0 to 100 scale (0 no effect, 100 complete control)

CCCc1cc(C(=O)NC(C)C)nn1Cc1ccnc(C(F)(F)F)c1 [Compound 186]
Plant response rating (scale of 0 to 100 where 0 is no effect and 100 is complete control), Chickweed (chickweed): 70 | Chickweed plant response rating (chickweed): 80 | Plant response rating, Chickweed (chickweed; [10]): 100 | Plant response rating, Chickweed (chickweed; [11]): 85 | Plant response rating, Velvetleaf (velvetleaf [1]): 80 | Velvetleaf plant response rating (velvetleaf [1]): 55 | Plant response rating (scale of 0 to 100 where 0 is no effect and 100 is complete control), Lambsquarters (lambsquarters): 95 | Lambsquarters plant response rating (lambsquarters): 65 | Plant response rating, Lambsquarters (lambsquarters; [10]): 98 | Plant response rating, Lambsquarters (lambsquarters; [11]): 75 | Pigweed plant response rating (pigweed): 70 | Plant response rating, Pigweed (pigweed; [10]): 85 | Plant response rating, Pigweed (pigweed; [11]): 85 | Velvetleaf plant response rating (velvetleaf [2]; [12]): 20 | Velvetleaf plant response rating (velvetleaf [2]; [13]): 100 | Plant response rating (scale of 0 to 100 where 0 is no effect and 100 is complete control), Barnyardgrass (barnyardgrass [3]): 5 | Barnyardgrass plant response rating (barnyardgrass [3]): 10 | Plant response rating, Barnyardgrass (barnyardgrass [3]; [10]): 55 | Plant response rating, Barnyardgrass (barnyardgrass [3]; [11]): 10 | Corn plant response rating (0 to 100 scale) (corn [4]): 80 | Corn plant response rating (corn [4]): 100 | Barnyardgrass plant response rating (barnyardgrass [5]; [14]): 100 | Barnyardgrass plant response rating (barnyardgrass [5]; [15]): 100 | Plant response rating, Barnyardgrass (barnyardgrass [5]; 13 to 15 days): 100 | Barnyardgrass plant response rating (barnyardgrass [5]; [16]): 100 | Plant response rating (scale of 0 to 100 where 0 is no effect and 100 is complete control), Oat, Wild (oat, wild): 10 | Oat, Wild plant response rating (oat, wild): 35 | Plant response rating, Oat, Wild (oat, wild; [10]): 80 | Plant response rating, Oat, Wild (oat, wild; [11]): 35 | Morningglory plant response rating (0 to 100 scale) (morningglory [6]): 100 | Morningglory plant response rating (morningglory [6]): 100 | Oilseed Rape plant response rating (oilseed rape): 60 | Plant response rating, Oilseed Rape (oilseed rape; [10]): 85 | Plant response rating, Oilseed Rape (oilseed rape; [11]): 80 | Foxtail, Giant plant response rating (0 to 100 scale) (foxtail, giant): 100 | Foxtail, Giant plant response rating (foxtail, giant): 100 | Plant response rating (scale of 0 to 100 where 0 is no effect and 100 is complete control), Morningglory (morningglory [7]): 85 | Morningglory plant response rating (morningglory [7]): 85 | Plant response rating, Morningglory (morningglory [7]; [10]): 75 | Plant response rating, Morningglory (morningglory [7]; [11]): 75 | Barnyardgrass plant response rating (barnyardgrass [8]; [17]): 90 | Barnyardgrass plant response rating (barnyardgrass [8]; [18]): 90 | Galium plant response rating (galium; [14]): 50 | Galium plant response rating (galium; [15]): 100 | Plant response rating, Galium (galium; 13 to 15 days): 100 | Galium plant response rating (galium; [16]): 95 | Corn plant response rating (corn [9]; [17]): 100 | Corn plant response rating (corn [9]; [18]): 100

CCCNC(=O)c1cc(OCC)n(Cc2ccnc(C(F)(F)F)c2)n1 [Compound 187]
Plant response rating (scale of 0 to 100 where 0 is no effect and 100 is complete control), Chickweed (chickweed): 98 | Chickweed plant response rating (chickweed): 70 | Plant response rating, Chickweed (chickweed; [10]): 85 | Plant response rating, Chickweed (chickweed; [11]): 80 | Plant response rating, Velvetleaf (velvetleaf [1]): 65 | Velvetleaf plant response rating (velvetleaf [1]): 55 | Plant response rating (scale of 0 to 100 where 0 is no effect and 100 is complete control), Lambsquarters (lambsquarters): 60 | Lambsquarters plant response rating (lambsquarters): 75 | Plant response rating, Lambsquarters (lambsquarters; [10]): 90 | Plant response rating, Lambsquarters (lambsquarters; [11]): 75 | Pigweed plant response rating (pigweed): 50 | Plant response rating, Pigweed (pigweed; [10]): 75 | Plant response rating, Pigweed (pigweed; [11]): 60 | Velvetleaf plant response rating (velvetleaf [2]; [12]): 90 | Velvetleaf plant response rating (velvetleaf [2]; [13]): 100 | Plant response rating (scale of 0 to 100 where 0 is no effect and 100 is complete control), Barnyardgrass (barnyardgrass [3]): 5 | Barnyardgrass plant response rating (barnyardgrass [3]): 10 | Plant response rating, Barnyardgrass (barnyardgrass [3]; [10]): 60 | Plant response rating, Barnyardgrass (barnyardgrass [3]; [11]): 15 | Corn plant response rating (0 to 100 scale) (corn [4]): 40 | Corn plant response rating (corn [4]): 90 | Barnyardgrass plant response rating (barnyardgrass [5]; [14]): 95 | Barnyardgrass plant response rating (barnyardgrass [5]; [15]): 100 | Plant response rating, Barnyardgrass (barnyardgrass [5]; 13 to 15 days): 100 | Barnyardgrass plant response rating (barnyardgrass [5]; [16]): 100 | Plant response rating (scale of 0 to 100 where 0 is no effect and 100 is complete control), Oat, Wild (oat, wild): 10 | Oat, Wild plant response rating (oat, wild): 15 | Plant response rating, Oat, Wild (oat, wild; [10]): 50 | Plant response rating, Oat, Wild (oat, wild; [11]): 30 | Morningglory plant response rating (0 to 100 scale) (morningglory [6]): 100 | Morningglory plant response rating (morningglory [6]): 100 | Oilseed Rape plant response rating (oilseed rape): 50 | Plant response rating, Oilseed Rape (oilseed rape; [10]): 80 | Plant response rating, Oilseed Rape (oilseed rape; [11]): 75 | Foxtail, Giant plant response rating (0 to 100 scale) (foxtail, giant): 100 | Foxtail, Giant plant response rating (foxtail, giant): 100 | Plant response rating (scale of 0 to 100 where 0 is no effect and 100 is complete control), Morningglory (morningglory [7]): 70 | Morningglory plant response rating (morningglory [7]): 85 | Plant response rating, Morningglory (morningglory [7]; [10]): 98 | Plant response rating, Morningglory (morningglory [7]; [11]): 80 | Barnyardgrass plant response rating (barnyardgrass [8]; [17]): 90 | Barnyardgrass plant response rating (barnyardgrass [8]; [18]): 90 | Galium plant response rating (galium; [14]): 90 | Galium plant response rating (galium; [15]): 95 | Plant response rating, Galium (galium; 13 to 15 days): 95 | Galium plant response rating (galium; [16]): 98 | Corn plant response rating (corn [9]; [17]): 100 | Corn plant response rating (corn [9]; [18]): 80
